From PubChem BioAssay AID1963442 (Molecular Pharmacology Branch, DTP, NCI, 2024)

Tested on: MPNST complex spheroid with HUVEC/MSC, growth, % test/control
Experiment: Anticancer human tumor MPNST cell line growth inhibition [Asc];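 note: compounds left on spheroids for seven days before reading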
Conditions: for IC50: curve of first compound; for viability, T/C: stronger effect = lower value
Description: Multicellular complex tumor spheroid response to apoptosis pathway targeting inhibitors Alrizomadlin, Pelcitoclax, and Dasminapant in combination with a variety of drugs and investigational agents in selected tumor cell lines
The MDM2 inhibitor alrizomadlin, the Bcl-2/Bcl-xL inhibitor pelcitoclax, and the IAPs inhibitor dasminapant were evaluated both individually and in combination with standard of care and investigational anticancer small molecules within a complex spheroid model of solid tumors. . Complex spheroids include a stromal component modeled by human endothelial cells (HUVEC) and fibroblasts modeled by human mesenchymal stem cells (MSCs). The concentration ranges selected for each drug and investigational agent were based upon clinically achievable concentrations if the clinical Cmax of the agent was known.
Compounds. The drugs and investigational agents: alrizomadlin (APG-115; NSC831270), pelcitoclax (APG-1252; NSC835773), dasminapant (APG-1387;NSC834197), TAK-243 (NSC785004), copanlisib (NSC809693), olaparib (NSC753686), talazoparib (NSC767125), cobimetinib (NSC 768068), eltanexor (KPT-8602, NSC 794443), abemaciclib (NSC 768073), sotorasib (NSC818433), adagrasib (NSC 831453), MRTX-1133 (NSC 836407), Iadademestat (ORY1001, NSC 806812), and RMC-4630 (NSC839698), were obtained from the NCI Developmental Therapeutics Program Chemical Repository. The FDA-approved anticancer drug set is available from the Developmental Therapeutics Program at https://dtp.cancer.gov/organization/dscb/obtaining/available plates.htm. […] The stock solutions were prepared in dimethyl sulfoxide (DMSO, Sigma-Aldrich, St. Louis, MO, cat. D2650) at 800-fold the tested concentration and stored at -70 degrees C prior to their use. All drugs and investigational agents were tested over a range starting from a high concentration at or near the clinical Cmax and decreasing in half-log increments. If the clinical Cmax for an agent had not been determined, the highest concentration tested was 10 microM.
The patient-derived cancer (PDC) cell lines include five colon adenocarcinomas: 186277-243-T-J2-PDC, 616215-338-R-J1-PDC, 439559-082-T-J2-PDC, 463943-066-T-J2-PDC, and 519858-162-T-J1-PDC; three pancreatic carcinomas: 323965-272-R-J2-PDC, 521955-158-R6-J3-PDC, and 521955-158-R2-J5-PDC; two uterine sarcomas: 327498-152-R-J2-PDC and 993429-296-R-J1-PDC; two rhabdomyosarcomas: 755483-174-R-J1-PDC and 772245-204-R-J1-PDC; two soft tissue sarcomas: 126254-015-R-J1-PDC and 494315-158-R-J1-PDC; two malignant fibrous histiocytomas: 317291-083-R-J1-PDC and 596521-263-R-J1-PDC; two breast carcinomas: 171881-019-R-J1-PDC and 885512-296-R-J2-PDC; and one ovarian carcinoma: 6556581-035-R-J-PDC were obtained from the NCI PDMR, (https://pdmr.cancer.gov). The established cell lines HSSY-2 synovial sarcoma (RRID:CVCL 8719), SYO-1 synovial sarcoma (RRID:CVCL_7146), MPNST malignant peripheral neural sheath tumor were obtained from the Sloan Kettering Institute. The following established cell lines were purchased from the American Type Culture Collection (ATCC, Manassas, VA), Sor the received from the NCI repository:, PANC-1 pancreatic carcinoma (CRL-1469, RRID:CVCL_0480), OVCAR-5 ovarian carcinoma (RRID:CVCL_1628), OVCAR-8 ovarian carcinoma (RRID:CVCL_1629), , MCF-7 breast carcinoma (CRL-12584, RRID:CVCL_0031), MDA-MB-231 breast carcinoma (CRL-12532, RRID:CVCL_0062), NCI-H1876 small cell lung carcinoma (CRL-5902, RRID:CVCL_1503), NCI-H510A small cell lung carcinoma (HTB-184, RRID:CVCL_1565), NCI-H1417 (CRL-5869, RRID:CVCL_1469), and NCI-H196 small cell lung carcinoma (CRL-5823, RRID:CVCL_1509). Dr. Peter Houghton (Greehey Children's Cancer Research Institute, University of Texas Health Science Center, San Antonio, TX) provided Rh-18 rhabdomyosarcoma (RRID:CVCL_1659). Pooled donor human umbilical vein endothelial cells (HUVEC, Lonza, cat. CC-2519) and human mesenchymal stem cells (hMSC, Lonza, cat. PT-2501) were purchased from Lonza (Walkersville, MD).
Cell Culture. […]

With `CCN1CCN(Cc2ccc(Nc3ncc(F)c(-c4cc(F)c5nc(C)n(C(C)C)c5c4)n3)nc2)CC1` + CCN1C(C(=O)NC23CCC(C(=O)O)(CC2)CC3)C(c2cccc(Cl)c2F)C2(C(=O)Nc3cc(Cl)ccc32)C12CCCCC2 the IC50 (second compound 0.03 µM) was > 1000 nM, the IC50 (second compound 0.0949 µM) was > 1000 nM and the IC50 (second compound 0.3 µM) was > 1000 nM. For the same compound, the IC50 (second compound 0.949 µM) was > 1000 nM, the IC50 (second compound 3 µM) was > 1000 nM and the viability, T/C (second compound 0.03 µM, first compound 0.00316 µM) was 107%. It also gave a viability, T/C (second compound 0.03 µM, first compound 0.01 µM) of 109%, a viability, T/C (second compound 0.03 µM, first compound 0.0316 µM) of 88.7% and a viability, T/C (second compound 0.03 µM, first compound 0.1 µM) of 75.3%. For the same compound, the viability, T/C (second compound 0.03 µM, first compound 0.316 µM) was 64.5%, the viability, T/C (second compound 0.03 µM, first compound 1 µM) was 72.6% and the viability, T/C (second compound 0.0949 µM, first compound 0.00316 µM) was 98.1%. The viability, T/C (second compound 0.0949 µM, first compound 0.01 µM) was 111%, the viability, T/C (second compound 0.0949 µM, first compound 0.0316 µM) was 104% and the viability, T/C (second compound 0.0949 µM, first compound 0.1 µM) was 106%. The viability, T/C (second compound 0.0949 µM, first compound 0.316 µM) was 73.9%, the viability, T/C (second compound 0.0949 µM, first compound 1 µM) was 77% and the viability, T/C (second compound 0.3 µM, first compound 0.00316 µM) was 113%. It also gave a viability, T/C (second compound 0.3 µM, first compound 0.01 µM) of 93.9%, a viability, T/C (second compound 0.3 µM, first compound 0.0316 µM) of 87.1% and a viability, T/C (second compound 0.3 µM, first compound 0.1 µM) of 103%. The viability, T/C (second compound 0.3 µM, first compound 0.316 µM) was 115%, the viability, T/C (second compound 0.3 µM, first compound 1 µM) was 90.1% and the viability, T/C (second compound 0.949 µM, first compound 0.00316 µM) was 105%. The viability, T/C (second compound 0.949 µM, first compound 0.01 µM) was 91.6%, the viability, T/C (second compound 0.949 µM, first compound 0.0316 µM) was 92.1% and the viability, T/C (second compound 0.949 µM, first compound 0.1 µM) was 92.3%. The viability, T/C (second compound 0.949 µM, first compound 0.316 µM) was 90.2%, the viability, T/C (second compound 0.949 µM, first compound 1 µM) was 91.4% and the viability, T/C (second compound 3 µM, first compound 0.00316 µM) was 107%. It also gave a viability, T/C (second compound 3 µM, first compound 0.01 µM) of 92%, a viability, T/C (second compound 3 µM, first compound 0.0316 µM) of 91.9% and a viability, T/C (second compound 3 µM, first compound 0.1 µM) of 76.5%. The viability, T/C (second compound 3 µM, first compound 0.316 µM) was 89.3% and the viability, T/C (second compound 3 µM, first compound 1 µM) was 85.7%.
